Results reported in patent publication US7250397B2, “Antiarrhythmic peptides” (Zealand Pharma A/S, priority 2000, dated 2007).
Entries after “also recorded” stand apart in the source; their conditions may differ.

Columns and labels:
[1] = system: alkaline phosphatase (ALP) activity of human osteoblasts; experiment: Alkaline phosphatase (ALP) assay in human osteoblasts; format: cell-based; settings: four days; 10^−13-10^−6 M; normal culture conditions
Protocol: (§1) Human osteblast cells (hOB): Cells were isolated from human bone marrow obtained by puncture of the posterior iliac spine of healthy volunteers (aged 20-36): 10-15 ml marrow material was collected in 15 ml PBS+Ca,Mg (Life Technologies, Cat.No. 14040) with 100 U/ml Heparin (Sigma, Cat.No. H-3149). The mononuclear fraction of the marrow was isolated on a Lymphoprep gradient (Nycomed Pharma, Cat.No. 1001967), by centrifugation at 2200 rpm for 30 min. After harvesting, the mononuclear fraction was washed once with culture medium and centrifuged at 1800 rpm for 10 min. Subsequently cells were counted and plated in culture medium at 8×10^6 cells/100 mm dish. hOB medium (all reagents obtained from Life Technologies): MEM w/o Phenol Red w/Glutamax (Cat.No. 041-93013) supplemented with 10% heat inactivated fetal calf serum (Cat.No. 10106) and 0.1% Penicillin/Streptomycin (Cat.No. 15140). Medium was changed the following day and the cells were cultured at 37° C. in 5%CO2 with medium change every 7 days. After 3-4 weeks of culture the cells had reached 70% confluence. […]
• Day 1: Cells were plated in 96-well plates at a conc. of 8000 cells/well (hOB) or 3000 cells/well (ROS) in 200 μl normal culture medium. • Day 2: Medium was changed on the cells. • Day 4: (Day 3 for ROS): Cells were washed with 200 μl MEM, 0.1% BSA (Sigma, Cat.No. A-9418). […] Absorbance was measured using a plate reader at 405 nm. […]

human osteoblast = experiment: Lucifer Yellow dye transfer in human osteoblasts; format: cell-based; settings: 10 minutes; after 48 hours hypoxia 3-6% O2 (7 cells before)
Protocol: as §1, with “days.” for “days. After 3-4 weeks of culture the cells had reached 70% confluence.”
To assess the effect of the compound on direct cellular coupling, microinjection experiments were performed according to the method described above. […] After 30 seconds, the number of cells containing dye was assessed. […] Then cellular coupling was re-assessed by microinjecting LY, and at this point the dye was only passed to an average of 7 cells (n=10).

ROS 17/2.8 cells = experiment: Intercellular calcium wave propagation in ROS 17/2.8 cells; format: cell-based, rat; settings: 10^−8 M, 10 minutes; 48 hours hypoxia 3-6% O2 (2.2 cells before)
Protocol: ROS 17/2.8 cells: Cells were cultured in 100 mm dishes at 37° C. with 5% CO2 and medium change every 2-3 days. ROS medium (all reagents obtained from Life Technologies) MEM (Cat.No. 31095) supplemented with 10% heat-inactivated calf serum (Cat.No. 16170), 1% NEAA (Cat.No. 11140), 1% Sodium Pyruvate (Cat.No. 11360), 1% L-Glutamine (Cat.No. 25030) and 0.1% Penicillin/Streptomycin (Cat.No. 15140). For video imaging experiments, cells were plated on coverslips at 2-3×10^5 cells/coverslip and cultured for 2-3 days before use.
The cells cultured on coverslips were loaded with 5 μM fura-2-AM (Molecular Probes, Cat.No. F-1221), for 30 minutes at 37° C., and incubated in fresh medium for 20 minutes. Coverslips were then affixed to a PDMI-2 culture chamber (Medical Systems Corp.), maintained at 37° C. with superfused CO2, on a Zeiss Axiovert microscope. Intercellular calcium waves were induced by mechanical stimulation of a single cell using a borosilicate glass micro pipette affixed to an Eppendorf 5171 micromanipulator. Imaging was performed using a MetaMorph imaging system (Universal Imaging). The excitation light (340 and 380 nm) was provided by a monochromator (T.I.L.L. Photonics GmbH). Images were acquired with an intensified CCD camera (Dage MTI) and digitized with a Matrox MVP image processing board. […]

human osteoblastic cells = experiment: Intercellular calcium wave propagation in human osteoblasts; format: cell-based; settings: 10^−8 M; medium without glucose (1.4 cells before); after ATP desensitization
Protocol: as §1, with “confluence. The medium was then supplemented with 100 nM Dexamethasone (Sigma, Cat.No. D-4902) for 7 days.” for “confluence.”
Metabolic stress induced by hypoglycemia is also known to decrease gap junctional communication. […] After ATP desensitization as described above, one single cell was stimulated mechanically, and the number of cells in the wave was recorded. […]

Ac-D-Tyr-D-Pro-D-4Hyp-Gly-D-Ala-Gly-NH2 [Compound 2]
ALP activity compared to untreated controls [1]: increased ALP activity at most of the concentrations tested; also recorded: stimulated ALP activity | dye transfer, number of cells (human osteoblast): 9 cells | average number of cells in the calcium wave (ROS 17/2.8 cells): 5.4 cells | average number of cells in the calcium wave (human osteoblastic cells): 2.9 cells
